Entries after “also recorded” stand apart in the source; their conditions may differ.
Experiments:
Merkel cells [1] = assay: Piccolo expression in CK20-positive Merkel cells of cultured scalp samples (fluorescent immunohistochemical staining); format: cell-based, Human; conditions: Sandalore 500 µM in medium from day 1, samples collected day 3, control 0.1% DMSO
Text: Human scalp from the temporal and occipital regions was taken from healthy female subjects (47 to 60 years of age) that had received common cosmetic surgery, and used after obtaining informed consent and ethical approval (Muenster University).
Scalp samples including hair follicles were taken using a 6 mm punch from the occipital region (donors 1, 2, 3 and 4) or the temporal region (donor 5) of subjects: a person (donor 1), a person (donor 2), a person (donor 3), a person (donor 4) and a donor 5). The obtained samples were placed in 25 ng/ml NGF-added DMEM/F12 medium and cultured in a 5% CO2 humidified atmosphere at 37°C (day 0). […]
The primary antibodies used were anti-CK20 antibody (distributor: Progen, Product No.: Product No.: 61054) and anti-Piccolo antibody (distributor: Novus Biologicals (Tocris), Product No.: NBP1-90250), and the subsequent secondary antibodies used were Goat anti-Rabbit IgG (H+L) Cross-Adsorbed Secondary Antibody (distributor: Invitrogen, Product No.: A-11008) and Goat anti-Mouse IgG (H+L) Highly Cross-Adsorbed Secondary Antibody (distributor: Invitrogen, Product No.: A-11030), in combination with each of the primary antibodies, respectively. […] The number of CK20-positive cells expressing Piccolo in a specified region in a photograph taken under a fluorescent microscope were counted and shown in a graph (Fig. 4C).

Merkel cells [2] = assay: Neurotransmitter release by Merkel cells in fresh skin epidermis ex vivo (FFN206 fluorescent tracer live imaging); format: cell-based, human; conditions: 500 µM Sandalore/BSS solution circulated from 300 s to 600 s; control BSS solution alone
Protocol: Fresh skin excised from the abdominal region of a healthy subject and a healthy subject, both having undergone cosmetic surgery, was used for experimentation within 5 days, after obtaining informed consent and ethical approval. The skin was exposed to 25 units/ml of a dispase-PBS solution for 15 minutes at 37°C to detach the epidermis.
The epidermis isolated from the fresh human skin was cultured for 30 minutes in a high-potassium extracellular solution (5 mM NaCl, 140 mM KCl, 10 mM HEPES (pH 7.4), 10 mM D-glucose, 2 mM MgCl2 and 2 mM CaCl2) containing FFN206 (Tocris, Catalog No. 5043), and the fluorescent-labeled neurotransmitter FFN206 was specifically taken up into the Merkel cells.
BSS (Balanced salt solution) solution (140 mM NaCl, 5 mM KCl, 10 mM HEPES (pH 7.4), 10 mM D-glucose, 2 mM MgCl2 and 2 mM CaCl2) was circulated for the first 5 minutes, as baseline. After 5 minutes (300 s) until the end of observation (600 s), circulation was with 500 µM Sandalore (Givaudan)/BSS solution (A). […]
The cell response was evaluated based on the brightness value of FFN206, using cellSens (Olympus) and MATLAB (Mathworks). […] The change in brightness value of the baseline in each ROI was determined by nonlinear approximation, and the brightness value with the effect of discoloration eliminated was determined based on the approximation results for baseline. […]

For CC1=CCC(CCC(C)C(C)O)C1(C)C (centres unmarked) [Sandalore, 3-methyl-5-(2,2,3-trimethyl-cyclopenta-3-en-1-yl)-pentan-2-ol], the “number of CK20-positive cells expressing Piccolo in a specified region” value (Merkel cells [1]) was “increased the number of Merkel cells expressing Piccolo” and the “fluorescent brightness value of Merkel cells (FFN206 signal)” value (Merkel cells [2]) was “the fluorescent brightness value decreased; also recorded: the brightness value continued to decrease beyond the reaction line calculated from baseline”.

Source: patent EP4316475A1, “MERKEL CELL ACTIVATOR, SYNAPTIC VESICLE ENHANCER, NEUROTRANSMITTER RELEASE ACCELERATOR, METHOD FOR ASSESSING NEUROTRANSMITTER RELEASE ACTIVITY OF MERKEL CELLS, AND METHOD FOR SCREENING FOR NEUROTRANSMITTER RELEASE ACCELERATOR FOR MERKEL CELLS” (Shiseido Company, Ltd., priority 2021, dated 2022)
